Like-named read-outs stand apart in the source and are kept apart here.
Experiments:
SARS-CoV-2 PLpro [1] = target: T1, SARS-CoV-2 PLpro (Severe acute respiratory syndrome coronavirus 2, UniProt P0DTD1); assay type: biochemical
[2] = 15, 30, 45 mg/kg oral; observation period of five days
SARS-CoV-2 [3] = assay type: cell-based
PLpro = PLpro (Severe acute respiratory syndrome coronavirus 2, UniProt P0DTD1); test: Differential scanning fluorimetry; details: PLpro 2.5 μM; ATA 0.78 μM to 200 μM; 20 °C to 90 °C
SARS-CoV-2 PLpro [4] = target: T1, SARS-CoV-2 PLpro; assay type: binding
SARS-CoV-2 [5] = assay type: in vivo, Syrian hamster; details: for reduction in virus RNA levels in throat swabs vs untreated control: daily day 0–4, day 5
SARS-CoV-2 [6] = details: Vero-E6 cells ref 9; cited from earlier work
[7] = PLpro pre-incubated with GRL0617 for 2 h
[8] = binding to PLpro, no pre-incubation

## O=C1C=CC(=C(c2ccc(O)cc2)c2ccc(O)cc2)C=C1 [aurin, reference compound]
SARS-CoV-2 PLpro [1]
  inhibition of PLpro: didn't inhibit

## O=C(O)C1=CC(=C(c2ccc(O)c(C(=O)O)c2)c2ccc(O)c(C(=O)O)c2)C=CC1=O [ATA, aurintricarboxylic acid]
[2]
  weight loss, gross complications, or mortality: no significant weight loss
SARS-CoV-2 [3]; 25 μM ATA
  % reduction: 3.1%
  Viral RNA copy no./ml: 2404
SARS-CoV-2 [3]; 75 μM ATA
  % reduction: 84.2%
  Viral RNA copy no./ml: 393
SARS-CoV-2 [3]; 100 μM ATA
  % reduction: 91.7%
  Viral RNA copy no./ml: 207
SARS-CoV-2 [3]; 200 μM ATA
  % reduction: 92.2%
  Viral RNA copy no./ml: 193
SARS-CoV-2 [3]; 300 μM ATA
  % reduction: 97.1%
  Viral RNA copy no./ml: 71
SARS-CoV-2 [3]; 400 μM ATA
  % reduction: 99.0%
  Viral RNA copy no./ml: 25
PLpro
  effect on PLpro structure (SYPRO Orange dye fluorescence): stabilizes the protein structure
SARS-CoV-2 PLpro [4]; [7]
  N (stoichiometry): 1.30
  ΔH (enthalpy change): -10.05 kJ/mol
  ΔS (entropy change): 14.6 cal/mol/deg
SARS-CoV-2 PLpro [4]; [8]
  N (stoichiometry): 1.31
  ΔH (enthalpy change): -10.33 kJ/mol
  ΔS (entropy change): 14.3 cal/mol/deg
SARS-CoV-2 PLpro [4]; one-site binding model, no pre-incubation
  enthalpy (ΔH): -10.3 kJ/mol
SARS-CoV-2 [5]; 15, 30, 45 mg/kg oral, day 5
  reduction of virus RNA levels in lung tissues vs untreated control: no significant reduction
SARS-CoV-2 [5]; 15, 30, 45 mg/kg oral, day 5, H&E
  lung pathology vs untreated: no noticeable difference
SARS-CoV-2 [5]; group A, 15 mg/kg oral
  reduction in virus RNA levels in throat swabs vs untreated control: 0.4 log
SARS-CoV-2 [5]; group B, 30 mg/kg oral
  reduction in virus RNA levels in throat swabs vs untreated control: 0.4 log
SARS-CoV-2 [5]; group C, 45 mg/kg oral
  reduction in virus RNA levels in throat swabs vs untreated control: 1 log
SARS-CoV-2 PLpro [1]; best fit of kinetic data among four models (AICc)
  type of inhibition: non-competitive
SARS-CoV-2 PLpro [1]; compounds up to 300 μM, 200 nM enzyme, 20 μM substrate, 5 mM DTT
  inhibition of PLpro enzymatic activity in library screening: significant inhibition

## Nc1nc2nc[nH]c2c(=S)[nH]1 [6-TG, 6-thioguanine]
SARS-CoV-2 [6]
  EC50: ~2 µM

From publication PMC9851725 (International Journal of Biological Macromolecules, 2023)
